Data from ChEMBL document CHEMBL4732257, “The optimization and characterization of functionalized sulfonamides derived from sulfaphenazole against Mycobacterium tuberculosis with reduced CYP 2C9 inhibition” (Bioorg Med Chem Lett, 2021).
Converted amounts (≈) assume the structure as drawn.

tested on: Mycobacterium tuberculosis; test: Antitubercular activity against isoniazid,streptomycin,rifampicin,ethambutol,para-aminosalicylate,prothionamide,capreomycin-resistant Mycobacterium tuberculosis 14862 assessed as bacterial growth inhibition; format: functional

`Nc1ccc(S(=O)(=O)Nc2ccnn2-c2ccc(F)cc2)cc1` and `Cc1ccc(-n2nccc2NS(=O)(=O)c2ccc(N)cc2)cc1` are within 1.5-fold of each other in MIC: 10.9 µg/mL (≈ 32.7 µM) for the first, 11.9 µg/mL (≈ 36.3 µM) for the second.

`NNC(=O)c1ccncc1` [ISONIAZID] and `Nc1ccc(S(=O)(=O)Nc2ccnn2-c2ccccc2)cc1` [SULFAPHENAZOLE] cannot be ordered by MIC: over 10 µg/mL for the first, 12.6 µg/mL (≈ 40 µM) for the second.

`COc1ccc(-n2nccc2NS(=O)(=O)c2ccc(N)cc2)cc1` showed an MIC of 10.6 µg/mL (≈ 30.8 µM).
